# Results published in article PMC6409085, “Three odorant-binding proteins are involved in the behavioral response of Sogatella furcifera to rice plant volatiles” (PeerJ, 2019).
# Where “and” joins values, the source holds several entries; their conditions need not be identical. Equal entries are not always repeated.
# How the values were obtained:
# Experiment in all cases: biochemical
# Assay type in all cases: binding
# SfurOBP2 = SfurOBP2 (Sogatella furcifera, UniProt V5T759)
# Protocol: (§1) Thirty-six rice odorants ([He et al., 2014]; [Wang et al., 2017]) and 1-N-phenyl-naphthylamine (1-NPN) were purchased from Sigma-Aldrich (St Louis, MO, USA). These odorants and 1-NPN were dissolved in high-performance liquid chromatography (HPLC) purify grade methanol for 1.0 mM as work solution.
# (§2) Fluorescence competitive binding assays were performed on Tecan Spark 10M (Tecan Group Ltd., Männedorf, Switzerland) with the F96 Black ELIAS Plate (Sangon) ([Khuhro et al., 2017]; [Liu et al., 2017]). The solutions were excited at 337 nm and emission spectra were recorded between 390 and 490 nm. First, to test the binding constants of 1-NPN to the SfurOBPs, a 2.0 µM solution of protein in 50 mM Tris-HCl (pH = 7.4) was titrated with 1 mM 1-NPN to achieve virous concentrations. Next, the competitive binding of each odorant was measured using the 1-NPN as fluorescent reporter and odorant as competitor. The concentrations of protein and 1-NPN were both 2.0 µM, the odorant added after protein and 1-NPN added into the well of ELIAS Plate for 2 min. The final concentrations of each competitor were 2, 4, 6, 8, 10, 12, 14, 16, 18 and 20 µM. After 2 min of odorant added, the fluorescence intensity was measured and recorded. The volume of mixed solution in each well was maintained at 250 µL. Each interaction was performed in triplicates.
# (§3) GraphPad Prism 7.0 software (GraphPad Software, Inc., La Jolla, CA, USA) was used to calculated and generated the binding constants (K1−NPN) of 1-NPN to SfurOBPs and relative Scatchard plots ([Ban et al., 2003]; [Li et al., 2016]). Dissociation constant (Ki) of each odorant to SfurOBP was computed from the corresponding IC50 value (the half maximal inhibitory concentration), using the following equation: Ki=[IC50]/(1 + [1-NPN]/K1−NPN), where [1-NPN] is the free concentration of 1-NPN and K1−NPN is the dissociation constant of the complex protein/1-NPN.
# SfurOBP1 = SfurOBP1 (Sogatella furcifera, UniProt V5T8N5); conditions: for Fluorescence competitive binding assay, fluorescence intensity: OBP1, three replicate columns
# Sequence of SfurOBP1 (V5T8N5 entry or part of it): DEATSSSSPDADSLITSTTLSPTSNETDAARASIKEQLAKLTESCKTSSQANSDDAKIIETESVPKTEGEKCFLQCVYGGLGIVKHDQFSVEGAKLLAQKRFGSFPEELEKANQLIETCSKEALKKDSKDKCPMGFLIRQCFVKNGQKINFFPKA
# Protocol: as §1, §2, §3
# SfurOBP11 = SfurOBP11 (Sogatella furcifera, UniProt V5T6E3)
# Sequence of SfurOBP11 (V5T6E3 entry or part of it): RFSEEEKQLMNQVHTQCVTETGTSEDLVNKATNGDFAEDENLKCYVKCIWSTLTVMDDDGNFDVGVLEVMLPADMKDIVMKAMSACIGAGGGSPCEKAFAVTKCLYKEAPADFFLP
# Protocol: as §1, §2, §3
# SfurOBP3 = SfurOBP3 (Sogatella furcifera, UniProt V5T818); conditions: for Fluorescence competitive binding assay, fluorescence intensity: OBP3, three replicate columns
# Sequence of SfurOBP3 (V5T818 entry or part of it): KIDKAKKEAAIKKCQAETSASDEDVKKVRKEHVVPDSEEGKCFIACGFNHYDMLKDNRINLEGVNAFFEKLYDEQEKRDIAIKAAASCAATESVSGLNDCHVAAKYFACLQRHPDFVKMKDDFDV
# Protocol: as §1, §2, §3
# Sequence of SfurOBP2 (V5T759 entry or part of it): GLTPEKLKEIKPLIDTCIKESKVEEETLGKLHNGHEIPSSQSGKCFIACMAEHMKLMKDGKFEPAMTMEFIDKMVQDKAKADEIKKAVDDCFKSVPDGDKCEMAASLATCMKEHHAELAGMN
smiles,measurement,setting,value
"Cc1cc(C(C)(C)C)c(O)c(C(C)(C)C)c1 [2,6-di-tert-butyl-4-methylphenol]",IC50,"SfurOBP2; SfurOBP2, protein and 1-NPN both 2.0 µM, competitor 2-20 µM, read-out: IC50",> 20 µM
same,IC50,"SfurOBP1; SfurOBP1, protein and 1-NPN both 2.0 µM, competitor 2-20 µM, read-out: IC50",> 20 µM
same,IC50,"SfurOBP11; SfurOBP11, protein and 1-NPN both 2.0 µM, competitor 2-20 µM, read-out: IC50",18 µM
same,IC50,"SfurOBP3; SfurOBP3, protein and 1-NPN both 2.0 µM, competitor 2-20 µM, read-out: IC50",> 20 µM
"Cc1cc(C(C)(C)C)c(O)c(C(C)(C)C)c1 [BHT(2,6-di-tert-butyl-4-methylphenol)]","Fluorescence competitive binding assay, OBP2 (raw fluorescence reading)","SfurOBP2; ligand concentration 2 (unit not given), replicate column 1 of 3",17266
same,"Fluorescence competitive binding assay, OBP2 (raw fluorescence reading)","SfurOBP2; ligand concentration 2 (unit not given), replicate column 2 of 3",17491
same,"Fluorescence competitive binding assay, OBP2 (raw fluorescence reading)","SfurOBP2; ligand concentration 2 (unit not given), replicate column 3 of 3",17183
same,"Fluorescence competitive binding assay, OBP2 (raw fluorescence reading)","SfurOBP2; ligand concentration 4 (unit not given), replicate column 1 of 3",14970
same,"Fluorescence competitive binding assay, OBP2 (raw fluorescence reading)","SfurOBP2; ligand concentration 4 (unit not given), replicate column 2 of 3",16711
same,"Fluorescence competitive binding assay, OBP2 (raw fluorescence reading)","SfurOBP2; ligand concentration 4 (unit not given), replicate column 3 of 3",16317
same,"Fluorescence competitive binding assay, OBP2 (raw fluorescence reading)","SfurOBP2; ligand concentration 6 (unit not given), replicate column 1 of 3",15662
same,"Fluorescence competitive binding assay, OBP2 (raw fluorescence reading)","SfurOBP2; ligand concentration 6 (unit not given), replicate column 2 of 3",16983
same,"Fluorescence competitive binding assay, OBP2 (raw fluorescence reading)","SfurOBP2; ligand concentration 6 (unit not given), replicate column 3 of 3",15070
same,"Fluorescence competitive binding assay, OBP2 (raw fluorescence reading)","SfurOBP2; ligand concentration 8 (unit not given), replicate column 1 of 3",15947
same,"Fluorescence competitive binding assay, OBP2 (raw fluorescence reading)","SfurOBP2; ligand concentration 8 (unit not given), replicate column 2 of 3",15853
same,"Fluorescence competitive binding assay, OBP2 (raw fluorescence reading)","SfurOBP2; ligand concentration 8 (unit not given), replicate column 3 of 3",15572
same,"Fluorescence competitive binding assay, OBP2 (raw fluorescence reading)","SfurOBP2; ligand concentration 10 (unit not given), replicate column 1 of 3",14398
same,"Fluorescence competitive binding assay, OBP2 (raw fluorescence reading)","SfurOBP2; ligand concentration 10 (unit not given), replicate column 2 of 3",14630
same,"Fluorescence competitive binding assay, OBP2 (raw fluorescence reading)","SfurOBP2; ligand concentration 10 (unit not given), replicate column 3 of 3",15652
same,"Fluorescence competitive binding assay, OBP2 (raw fluorescence reading)","SfurOBP2; ligand concentration 12 (unit not given), replicate column 1 of 3",14856
same,"Fluorescence competitive binding assay, OBP2 (raw fluorescence reading)","SfurOBP2; ligand concentration 12 (unit not given), replicate column 2 of 3",14795
same,"Fluorescence competitive binding assay, OBP2 (raw fluorescence reading)","SfurOBP2; ligand concentration 12 (unit not given), replicate column 3 of 3",14083
same,"Fluorescence competitive binding assay, OBP2 (raw fluorescence reading)","SfurOBP2; ligand concentration 14 (unit not given), replicate column 1 of 3",12632
same,"Fluorescence competitive binding assay, OBP2 (raw fluorescence reading)","SfurOBP2; ligand concentration 14 (unit not given), replicate column 2 of 3",13317
same,"Fluorescence competitive binding assay, OBP2 (raw fluorescence reading)","SfurOBP2; ligand concentration 14 (unit not given), replicate column 3 of 3",14001
same,"Fluorescence competitive binding assay, OBP2 (raw fluorescence reading)","SfurOBP2; ligand concentration 16 (unit not given), replicate column 1 of 3",12208
same,"Fluorescence competitive binding assay, OBP2 (raw fluorescence reading)","SfurOBP2; ligand concentration 16 (unit not given), replicate column 2 of 3",12493
same,"Fluorescence competitive binding assay, OBP2 (raw fluorescence reading)","SfurOBP2; ligand concentration 16 (unit not given), replicate column 3 of 3",12411
same,"Fluorescence competitive binding assay, OBP2 (raw fluorescence reading)","SfurOBP2; ligand concentration 18 (unit not given), replicate column 1 of 3",12799
same,"Fluorescence competitive binding assay, OBP2 (raw fluorescence reading)","SfurOBP2; ligand concentration 18 (unit not given), replicate column 2 of 3",12350
same,"Fluorescence competitive binding assay, OBP2 (raw fluorescence reading)","SfurOBP2; ligand concentration 18 (unit not given), replicate column 3 of 3",11202
same,"Fluorescence competitive binding assay, OBP2 (raw fluorescence reading)","SfurOBP2; ligand concentration 20 (unit not given), replicate column 1 of 3",12923
same,"Fluorescence competitive binding assay, OBP2 (raw fluorescence reading)","SfurOBP2; ligand concentration 20 (unit not given), replicate column 2 of 3",12557
same,"Fluorescence competitive binding assay, OBP2 (raw fluorescence reading)","SfurOBP2; ligand concentration 20 (unit not given), replicate column 3 of 3",10378
same,"Fluorescence competitive binding assay, fluorescence intensity",SfurOBP1; ligand concentration 2 (μM),6030 and 6058 and 6096
same,"Fluorescence competitive binding assay, fluorescence intensity",SfurOBP1; ligand concentration 4 (μM),6092 and 6318 and 6150
same,"Fluorescence competitive binding assay, fluorescence intensity",SfurOBP1; ligand concentration 6 (μM),6520 and 6547 and 6496
same,"Fluorescence competitive binding assay, fluorescence intensity",SfurOBP1; ligand concentration 8 (μM),6548 and 6679 and 6600
same,"Fluorescence competitive binding assay, fluorescence intensity",SfurOBP1; ligand concentration 10 (μM),6739 and 6709 and 6666
same,"Fluorescence competitive binding assay, fluorescence intensity",SfurOBP1; ligand concentration 12 (μM),6775 and 6778 and 6802
same,"Fluorescence competitive binding assay, fluorescence intensity",SfurOBP1; ligand concentration 14 (μM),6847 and 6906 and 6978
same,"Fluorescence competitive binding assay, fluorescence intensity",SfurOBP1; ligand concentration 16 (μM),6943 and 7135 and 6900
same,"Fluorescence competitive binding assay, fluorescence intensity",SfurOBP1; ligand concentration 18 (μM),7439 and 7058 and 7176
same,"Fluorescence competitive binding assay, fluorescence intensity",SfurOBP1; ligand concentration 20 (μM),7203 and 7412 and 7729
same,"Fluorescence intensity, fluorescence competitive binding assay, OBP11","SfurOBP11; ligand concentration 2, replicate 1",23825
same,"Fluorescence intensity, fluorescence competitive binding assay, OBP11","SfurOBP11; ligand concentration 2, replicate 2",22642
same,"Fluorescence intensity, fluorescence competitive binding assay, OBP11","SfurOBP11; ligand concentration 2, replicate 3",21527
same,"Fluorescence intensity, fluorescence competitive binding assay, OBP11","SfurOBP11; ligand concentration 4, replicate 1",20143
same,"Fluorescence intensity, fluorescence competitive binding assay, OBP11","SfurOBP11; ligand concentration 4, replicate 2",21258
same,"Fluorescence intensity, fluorescence competitive binding assay, OBP11","SfurOBP11; ligand concentration 4, replicate 3",22100
same,"Fluorescence intensity, fluorescence competitive binding assay, OBP11","SfurOBP11; ligand concentration 6, replicate 1",20464
same,"Fluorescence intensity, fluorescence competitive binding assay, OBP11","SfurOBP11; ligand concentration 6, replicate 2",20607
same,"Fluorescence intensity, fluorescence competitive binding assay, OBP11","SfurOBP11; ligand concentration 6, replicate 3",21862
same,"Fluorescence intensity, fluorescence competitive binding assay, OBP11","SfurOBP11; ligand concentration 8, replicate 1",19852
same,"Fluorescence intensity, fluorescence competitive binding assay, OBP11","SfurOBP11; ligand concentration 8, replicate 2",19956
same,"Fluorescence intensity, fluorescence competitive binding assay, OBP11","SfurOBP11; ligand concentration 8, replicate 3",20060
same,"Fluorescence intensity, fluorescence competitive binding assay, OBP11","SfurOBP11; ligand concentration 10, replicate 1",19539
same,"Fluorescence intensity, fluorescence competitive binding assay, OBP11","SfurOBP11; ligand concentration 10, replicate 2",18542
same,"Fluorescence intensity, fluorescence competitive binding assay, OBP11","SfurOBP11; ligand concentration 10, replicate 3",20536
same,"Fluorescence intensity, fluorescence competitive binding assay, OBP11","SfurOBP11; ligand concentration 12, replicate 1",18948
same,"Fluorescence intensity, fluorescence competitive binding assay, OBP11","SfurOBP11; ligand concentration 12, replicate 2",19227
same,"Fluorescence intensity, fluorescence competitive binding assay, OBP11","SfurOBP11; ligand concentration 12, replicate 3",18669
same,"Fluorescence intensity, fluorescence competitive binding assay, OBP11","SfurOBP11; ligand concentration 14, replicate 1",16147
same,"Fluorescence intensity, fluorescence competitive binding assay, OBP11","SfurOBP11; ligand concentration 14, replicate 2",16112
same,"Fluorescence intensity, fluorescence competitive binding assay, OBP11","SfurOBP11; ligand concentration 14, replicate 3",15881
same,"Fluorescence intensity, fluorescence competitive binding assay, OBP11","SfurOBP11; ligand concentration 16, replicate 1",16019
same,"Fluorescence intensity, fluorescence competitive binding assay, OBP11","SfurOBP11; ligand concentration 16, replicate 2",15985
same,"Fluorescence intensity, fluorescence competitive binding assay, OBP11","SfurOBP11; ligand concentration 16, replicate 3",16022
same,"Fluorescence intensity, fluorescence competitive binding assay, OBP11","SfurOBP11; ligand concentration 18, replicate 1",16028
same,"Fluorescence intensity, fluorescence competitive binding assay, OBP11","SfurOBP11; ligand concentration 18, replicate 2",15902
same,"Fluorescence intensity, fluorescence competitive binding assay, OBP11","SfurOBP11; ligand concentration 18, replicate 3",15995
same,"Fluorescence intensity, fluorescence competitive binding assay, OBP11","SfurOBP11; ligand concentration 20, replicate 1",15978
same,"Fluorescence intensity, fluorescence competitive binding assay, OBP11","SfurOBP11; ligand concentration 20, replicate 2",15860
same,"Fluorescence intensity, fluorescence competitive binding assay, OBP11","SfurOBP11; ligand concentration 20, replicate 3",15984
same,"Fluorescence competitive binding assay, fluorescence intensity",SfurOBP3; ligand concentration 2,62922 and 62019 and 61313
same,"Fluorescence competitive binding assay, fluorescence intensity",SfurOBP3; ligand concentration 4,80496 and 109930 and 48944
same,"Fluorescence competitive binding assay, fluorescence intensity",SfurOBP3; ligand concentration 6,58503 and 58107 and 50633
same,"Fluorescence competitive binding assay, fluorescence intensity",SfurOBP3; ligand concentration 8,41822 and 72799 and 53759
same,"Fluorescence competitive binding assay, fluorescence intensity",SfurOBP3; ligand concentration 10,69788 and 72654 and 85946
same,"Fluorescence competitive binding assay, fluorescence intensity",SfurOBP3; ligand concentration 12,60000 and 90914 and 74114
same,"Fluorescence competitive binding assay, fluorescence intensity",SfurOBP3; ligand concentration 14,74285 and 75475 and 71382
same,"Fluorescence competitive binding assay, fluorescence intensity",SfurOBP3; ligand concentration 16,52587 and 87313 and 65294
same,"Fluorescence competitive binding assay, fluorescence intensity",SfurOBP3; ligand concentration 18,52719 and 70169 and 103842
same,"Fluorescence competitive binding assay, fluorescence intensity",SfurOBP3; ligand concentration 20,122349 and 93664 and 80933
